Key:
hMAO-A = target: T1, hMAO-A (Homo sapiens, UniProt P21397); test: MAO-A inhibition assay (in vitro fluorometric Amplex Red method); type: biochemical
T1 construct: purchased Sigma-Aldrich (Steinheim, Germany)
T1 sequence (P21397 1-527): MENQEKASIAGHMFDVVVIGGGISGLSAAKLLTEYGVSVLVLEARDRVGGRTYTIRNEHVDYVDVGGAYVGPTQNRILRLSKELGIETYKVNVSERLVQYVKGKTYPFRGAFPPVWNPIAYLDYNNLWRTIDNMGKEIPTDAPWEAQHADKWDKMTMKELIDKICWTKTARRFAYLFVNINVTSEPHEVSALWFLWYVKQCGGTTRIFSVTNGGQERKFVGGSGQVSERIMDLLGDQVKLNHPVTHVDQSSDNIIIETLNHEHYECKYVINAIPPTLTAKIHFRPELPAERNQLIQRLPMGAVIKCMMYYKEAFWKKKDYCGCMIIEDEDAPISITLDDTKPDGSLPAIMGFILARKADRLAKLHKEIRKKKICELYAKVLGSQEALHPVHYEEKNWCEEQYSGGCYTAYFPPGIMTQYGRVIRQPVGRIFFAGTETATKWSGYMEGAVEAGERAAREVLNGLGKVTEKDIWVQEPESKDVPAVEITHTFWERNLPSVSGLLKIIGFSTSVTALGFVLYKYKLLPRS

hMAO-B = target: T2, hMAO-B (Homo sapiens, UniProt P27338); test: MAO-B inhibition assay (in vitro fluorometric Amplex Red method); type: biochemical
T2 construct: purchased Sigma-Aldrich (Steinheim, Germany)
T2 sequence (P27338 1-520): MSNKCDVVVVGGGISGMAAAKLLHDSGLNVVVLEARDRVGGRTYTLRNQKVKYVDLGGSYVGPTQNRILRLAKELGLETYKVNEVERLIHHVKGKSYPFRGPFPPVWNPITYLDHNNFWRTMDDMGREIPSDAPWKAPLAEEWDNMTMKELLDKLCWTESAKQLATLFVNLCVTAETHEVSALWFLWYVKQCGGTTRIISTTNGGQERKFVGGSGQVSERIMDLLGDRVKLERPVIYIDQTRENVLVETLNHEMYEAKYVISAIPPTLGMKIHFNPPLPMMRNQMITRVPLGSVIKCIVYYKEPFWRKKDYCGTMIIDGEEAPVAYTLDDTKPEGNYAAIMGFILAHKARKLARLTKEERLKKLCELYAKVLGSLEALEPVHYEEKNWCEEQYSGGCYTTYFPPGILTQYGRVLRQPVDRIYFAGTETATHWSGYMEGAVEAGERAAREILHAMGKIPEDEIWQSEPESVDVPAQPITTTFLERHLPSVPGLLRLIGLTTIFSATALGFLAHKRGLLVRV

| Structure (SMILES) | melting point | inhibition at 1000 µM (hMAO-A; 10^−3 M) | inhibition at 100 µM (hMAO-A; 10^−4 M) | inhibition at 1000 µM (hMAO-B; 10^−3 M) | inhibition at 100 µM (hMAO-B; 10^−4 M) | further results |
| --- | --- | --- | --- | --- | --- | --- |
| Fc1ccc(Sc2ccc(C=NNc3ccccc3)cc2)cc1 [Compound 2h, 1-(4-((4-Fluorophenyl)thio)benzylidene)-2-phenylhydrazine] | 132.3 to 133.9 °C | 28.6 ± 0.57% | 21 ± 0.548% | 30.2 ± 0.574% | 24.1 ± 0.355% |  |
| C(=NNc1ccccc1)c1ccc(N2CCN(c3ccccc3)CC2)cc1 [Compound 2c, 1-(4-(4-Phenylpiperazine-1-yl)benzylidene)-2-phenylhydrazine] | 149.4 to 160.9 °C | 70.9 ± 1.06% | 43.2 ± 0.861% | 38.5 ± 0.732% | 34.7 ± 0.556% |  |
| CN(C)CCCN1CCN(c2ccc(C=NNc3ccccc3)cc2)CC1 [Compound 2n] |  |  |  |  |  | MAO-A Inhibition % (hMAO-A; 10^−3 M): 64.435 ± 1.104%; MAO-A Inhibition % (hMAO-A; 10^−4 M): 36.154 ± 0.817%; MAO-B Inhibition % (hMAO-B; 10^−3 M): 40.629 ± 0.933%; MAO-B Inhibition % (hMAO-B; 10^−4 M): 29.068 ± 0.734% |
| C(=NNc1ccccc1)c1ccc(-n2ccnc2)cc1 [Compound 2i, 1-(4-(1-Imidazolyl)benzylidene)-2-phenylhydrazine] | 201.9 to 208.9 °C | 40.9 ± 0.9% | 18.3 ± 0.618% | 38.2 ± 1.09% | 30.7 ± 0.707% |  |
| O=C(NCCN1CCOCC1)c1ccc(Cl)cc1 [Moclobemide, reference compound] |  |  | 82.1 ± 2.69% |  |  | inhibition at 10 µM (hMAO-A; 10^−5 M): 60.5 ± 2.56%; inhibition at 1 µM (hMAO-A; 10^−6 M): 36.2 ± 1.98%; inhibition at 0.1 µM (hMAO-A; 10^−7 M): 22.1 ± 1.34%; inhibition at 0.01 µM (hMAO-A; 10^−8 M): 18.2 ± 0.812%; inhibition at 0.001 µM (hMAO-A; 10^−9 M): 14.1 ± 0.725% |
| CN(C)CCN1CCN(c2ccc(C=NNc3ccccc3)cc2)CC1 [Compound 2m] |  |  |  |  |  | MAO-A Inhibition % (hMAO-A; 10^−3 M): 68.276 ± 1.048%; MAO-A Inhibition % (hMAO-A; 10^−4 M): 39.471 ± 0.719%; MAO-B Inhibition % (hMAO-B; 10^−3 M): 41.072 ± 0.732%; MAO-B Inhibition % (hMAO-B; 10^−4 M): 27.607 ± 0.961% |
| C(=NNc1ccccc1)c1ccc(-n2cncn2)cc1 [Compound 2j, 1-(4-(1H-1,2,4-triazole-1-yl)benzylidene)-2-phenylhydrazine] | 127.4 to 132.2 °C | 38.6 ± 0.743% | 33 ± 0.66% | 27.5 ± 0.633% | 22.1 ± 0.419% |  |
| Clc1ccc(Sc2ccc(C=NNc3ccccc3)cc2)cc1 [Compound 2k, 1-(4-((4-Chlorophenyl)thio)benzylidene)-2-phenylhydrazine] | 164.4 to 165.7 °C | 29.2 ± 0.672% | 21.5 ± 0.468% | 36.3 ± 0.774% | 19 ± 0.825% |  |
| C(=NNc1ccccc1)c1ccc(N2CCC(Cc3ccccc3)CC2)cc1 [Compound 2l, 1-(4-(Benzylpiperidine)benzylidene)-2-phenylhydrazine] |  |  |  |  |  | MAO-A Inhibition % (hMAO-A; 10^−3 M): 74.251 ± 1.614%; MAO-A Inhibition % (hMAO-A; 10^−4 M): 44.828 ± 0.917%; MAO-B Inhibition % (hMAO-B; 10^−3 M): 45.194 ± 0.692%; MAO-B Inhibition % (hMAO-B; 10^−4 M): 28.560 ± 0.629% |
| COc1ccc(Sc2ccc(C=NNc3ccccc3)cc2)cc1 [Compound 2f, 1-(4-((4-Methoxyphenyl)thio)benzylidene)-2-phenylhydrazine] | 178.1 to 184.3 °C | 30.5 ± 0.817% | 26.7 ± 0.748% | 33.3 ± 0.833% | 21.9 ± 0.416% |  |
| COc1ccc(Oc2ccc(C=NNc3ccccc3)cc2)cc1 [Compound 2e, 1-(4-(4-Methoxyphenoxy)benzylidene)-2-phenylhydrazine] | 170.9 to 174.9 °C | 32.5 ± 0.844% | 25 ± 0.425% | 26.5 ± 0.478% | 19.4 ± 0.327% |  |
| COc1ccc(N2CCN(c3ccc(C=NNc4ccccc4)cc3)CC2)cc1 [Compound 2d, 1-(4-(4-(4-Methoxyphenyl)piperazine-1-yl)benzylidene)-2-phenylhydrazine] | 141.2 to 150.4 °C | 68.6 ± 1.5% | 40.2 ± 0.97% | 39.2 ± 0.863% | 30.6 ± 0.613% |  |
| Fc1ccc(Oc2ccc(C=NNc3ccccc3)cc2)cc1 [Compound 2g, 1-(4-(4-Fluorophenoxy)benzylidene)-2-phenylhydrazine] | 121.3 to 124.9 °C | 54.5 ± 1% | 20.4 ± 0.469% | 21.7 ± 0.52% | 17.1 ± 0.412% |  |

— article PMC6152084, “Synthesis of New Hydrazone Derivatives for MAO Enzymes Inhibitory Activity” (Molecules : A Journal of Synthetic Chemistry and Natural …, 2017)
